Source: ChEMBL document CHEMBL1201862, “PubChem BioAssay data set” (2004)
Structures can show the parent of a compound that is named as a salt.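 The compound was tested at five concentrations on cells cultured in 96-well plates, with a 48-hour exposure period. GI50: concentration for 50% inhibition of growth.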 Activity calls are given as the source filed them. Cut-off read from the data, not from the text of the source: active = GI50 up to about 1.1 µM and inactive = higher.

Experiments:
Assay in all cases: growth of human tumour cells (NCI), 48 h
A498 = tested on: A498
BT-549 = tested on: BT-549
CAKI-1 = tested on: CAKI-1
DU-145 = tested on: DU-145
HCC 2998 = tested on: HCC 2998
HCT-15 = tested on: HCT-15
HOP-62 = tested on: HOP-62
HOP-92 = tested on: HOP-92
K562 = tested on: K562
MCF7 = tested on: MCF7
MDA-MB-231 = tested on: MDA-MB-231
MDA-MB-435 = tested on: MDA-MB-435
NCI/ADR-RES = tested on: NCI/ADR-RES
OVCAR-4 = tested on: OVCAR-4
OVCAR-5 = tested on: OVCAR-5
RPMI-8226 = tested on: RPMI-8226
SF-295 = tested on: SF-295
TK-10 = tested on: TK-10
UO-31 = tested on: UO-31

Compound	GI50 (A498)	GI50 (BT-549)	GI50 (CAKI-1)	GI50 (DU-145)	GI50 (HCC 2998)	GI50 (HCT-15) [µM]	GI50 (HOP-62)	GI50 (HOP-92)	GI50 (K562)	GI50 (MCF7)	GI50 (MDA-MB-231)	GI50 (MDA-MB-435)	GI50 (NCI/ADR-RES)	GI50 (OVCAR-4)	GI50 (OVCAR-5)	GI50 (RPMI-8226)	GI50 (SF-295)	GI50 (TK-10)	GI50 (UO-31)
O=C(CC(=O)Nc1ccccc1Cl)NNC(Sc1ccccc1)c1cc(/N=N/c2ccc(Br)cc2)ccc1O (configuration not stated)	2.39 µM (inactive)	1.66 µM (inactive)	1.46 µM (inactive)	2.28 µM (inactive)	2.81 µM (inactive)	0.679	2.56 µM (inactive)	2.07 µM (inactive)	2.31 µM (inactive)	0.681 µM (active)	2.22 µM (inactive)	2.06 µM (inactive)	1.28 µM (inactive)	1.86 µM (inactive)	3.01 µM (inactive)	1.23 µM (inactive)	1.88 µM (inactive)	1.69 µM (inactive)	1.14 µM (inactive)
O=C(Cn1c(=O)oc2ccc(C(=O)c3ccccc3Cl)cc21)c1ccc([N+](=O)[O-])cc1	30.1 µM (inactive)	19.1 µM (inactive)	38.5 µM (inactive)	42 µM (inactive)	17.9 µM (inactive)	17.7	25.1 µM (inactive)	27.5 µM (inactive)	14.9 µM (inactive)	22.9 µM (inactive)	20.8 µM (inactive)	17.7 µM (inactive)	22.6 µM (inactive)	10.9 µM (inactive)	47.6 µM (inactive)	9.51 µM (inactive)	21.8 µM (inactive)	51.1 µM (inactive)	23.6 µM (inactive)
CNN1C(=O)c2c(N)c(C#N)c(-c3ccccc3)c(-c3ccccc3)c2C1=O	> 100 µM (inactive)	> 100 µM (inactive)	> 100 µM (inactive)	> 100 µM (inactive)	> 100 µM (inactive)	> 100		> 100 µM (inactive)	48.9 µM (inactive)	65.8 µM (inactive)	> 100 µM (inactive)	> 100 µM (inactive)	82.2 µM (inactive)	> 100 µM (inactive)	30.3 µM (inactive)	24.7 µM (inactive)	73.5 µM (inactive)	> 100 µM (inactive)	48.6 µM (inactive)
NCCCCN [PUTRESCINE HYDROCHLORIDE]	> 100 µM (inactive)	> 100 µM (inactive)	15 µM (inactive)	> 100 µM (inactive)	> 100 µM (inactive)	> 100	> 100 µM (inactive)	> 100 µM (inactive)	> 100 µM (inactive)	> 100 µM (inactive)	> 100 µM (inactive)	8.36 µM (inactive)	> 100 µM (inactive)	19.4 µM (inactive)	> 100 µM (inactive)		> 100 µM (inactive)	> 100 µM (inactive)	> 100 µM (inactive)
NC1N=C(c2ccc(Cl)cc2)C2=C(N1)c1ccccc1CC2 (configuration not stated)	49.5 µM (inactive)	> 100 µM (inactive)	76.4 µM (inactive)	52.4 µM (inactive)	0.156 µM (active)	3.58	> 40.6 µM (inactive)	33.6 µM (inactive)	3.48 µM (inactive)	6.55 µM (inactive)	10.5 µM (inactive)	2.62 µM (inactive)	13 µM (inactive)	13.4 µM (inactive)	51.1 µM (inactive)	2.66 µM (inactive)	22.3 µM (inactive)	48.2 µM (inactive)	32.7 µM (inactive)
Cc1cc(NS(=O)(=O)c2ccc(NC(=O)c3cccc4c(NNc5ccc(S(N)(=O)=O)cc5)c5ccccc5nc34)cc2)no1		61.5 µM (inactive)	> 100 µM (inactive)	86.5 µM (inactive)	27.3 µM (inactive)	95.1	42.4 µM (inactive)	22.7 µM (inactive)	33.4 µM (inactive)	81.3 µM (inactive)	54.5 µM (inactive)	75.7 µM (inactive)	> 100 µM (inactive)	31.8 µM (inactive)	39.6 µM (inactive)	43.4 µM (inactive)	44.4 µM (inactive)	83.2 µM (inactive)	36.1 µM (inactive)
CCOc1ccc(N/C(=C(/C(Cl)=C(/Cl)N2CCCCC2)[N+](=O)[O-])n2nnc3ccccc32)cc1	18.3 µM (inactive)	17.7 µM (inactive)	9.23 µM (inactive)	19.2 µM (inactive)	21 µM (inactive)	11.1	21.4 µM (inactive)	18.2 µM (inactive)	17.4 µM (inactive)	16.9 µM (inactive)	20.9 µM (inactive)	8.49 µM (inactive)	19.3 µM (inactive)		16.7 µM (inactive)	14.7 µM (inactive)	22.4 µM (inactive)	32.8 µM (inactive)	2 µM (inactive)
COc1cc(OC)nc(-n2c(N)c(C#N)c3ccc([N+](=O)[O-])cc3c2=O)n1	> 100 µM (inactive)	> 100 µM (inactive)	> 100 µM (inactive)	> 100 µM (inactive)	> 100 µM (inactive)	> 100	> 100 µM (inactive)	> 100 µM (inactive)		> 100 µM (inactive)	> 100 µM (inactive)	> 100 µM (inactive)	> 100 µM (inactive)	> 100 µM (inactive)	> 100 µM (inactive)	> 100 µM (inactive)	> 100 µM (inactive)	> 100 µM (inactive)	> 100 µM (inactive)
CC1=CC(O)C(C(O)(C(F)(F)F)C(F)(F)F)C(C)(C)C1 (configuration not stated)	0.0296 µM (active)	> 10 µM (inactive)	> 10 µM (inactive)	> 10 µM (inactive)	> 10 µM (inactive)	> 10	> 10 µM (inactive)	> 10 µM (inactive)	> 10 µM (inactive)	> 10 µM (inactive)	> 10 µM (inactive)	< 0.001 µM (active)	> 10 µM (inactive)	> 10 µM (inactive)	> 10 µM (inactive)	> 10 µM (inactive)	> 10 µM (inactive)	> 10 µM (inactive)	
O=c1cc(NCC2CCCCC2)[nH]c(=O)[nH]1	> 100 µM (inactive)	> 100 µM (inactive)		> 100 µM (inactive)	> 100 µM (inactive)	> 100	> 100 µM (inactive)	95.1 µM (inactive)	> 100 µM (inactive)	> 100 µM (inactive)	> 100 µM (inactive)	> 100 µM (inactive)	> 100 µM (inactive)	> 100 µM (inactive)	> 100 µM (inactive)	> 100 µM (inactive)	> 100 µM (inactive)	> 100 µM (inactive)	> 100 µM (inactive)
O=[N+]([O-])c1ccc2sc(/C=N/c3ccccn3)cc2c1	> 100 µM (inactive)	85.1 µM (inactive)	> 100 µM (inactive)	77.6 µM (inactive)	> 100 µM (inactive)	51.4	> 100 µM (inactive)	69.8 µM (inactive)	26.8 µM (inactive)	30.4 µM (inactive)	84.1 µM (inactive)	71.6 µM (inactive)	97.7 µM (inactive)		> 100 µM (inactive)	22.6 µM (inactive)	82.8 µM (inactive)	> 100 µM (inactive)	> 100 µM (inactive)
O=C(CN1C(=O)c2ccccc2C1=O)OCC1CCCN2CCCCC12 (configuration not stated)	> 100 µM (inactive)	> 100 µM (inactive)	> 100 µM (inactive)	> 100 µM (inactive)	> 100 µM (inactive)	> 100		> 100 µM (inactive)	> 100 µM (inactive)	> 100 µM (inactive)	> 100 µM (inactive)	> 100 µM (inactive)	> 100 µM (inactive)	> 100 µM (inactive)		> 100 µM (inactive)	> 100 µM (inactive)	> 100 µM (inactive)	> 100 µM (inactive)
COc1ccc(Cc2ccc3nc(O)cc(C)c3c2)cc1S(=O)(=O)O	> 100 µM (inactive)	> 100 µM (inactive)	> 100 µM (inactive)	> 100 µM (inactive)		> 100	> 100 µM (inactive)	> 100 µM (inactive)	> 100 µM (inactive)	> 100 µM (inactive)	> 100 µM (inactive)	> 100 µM (inactive)	> 100 µM (inactive)	> 100 µM (inactive)	> 100 µM (inactive)	> 100 µM (inactive)	> 100 µM (inactive)	> 100 µM (inactive)	> 100 µM (inactive)
COc1ccccc1N1C(=O)/C(=C\c2cc(OC)c(OC)c(OC)c2)S(=O)(=O)C1c1ccccc1 (configuration not stated)	48.2 µM (inactive)	30.5 µM (inactive)	53.3 µM (inactive)	62.1 µM (inactive)	79.4 µM (inactive)	29.5	37.7 µM (inactive)	33.3 µM (inactive)	28.6 µM (inactive)	27.4 µM (inactive)	52.6 µM (inactive)	16 µM (inactive)	22.2 µM (inactive)	39.9 µM (inactive)		20.5 µM (inactive)	23.8 µM (inactive)	> 100 µM (inactive)	36.5 µM (inactive)
COc1cc(Nc2nc3c(N)cc(C(F)(F)F)cc3nc2-c2ccccc2)cc(OC)c1OC		35.5 µM (inactive)	45.4 µM (inactive)	> 100 µM (inactive)	> 100 µM (inactive)	> 94.6	26.3 µM (inactive)	1.39 µM (inactive)	> 100 µM (inactive)	67.3 µM (inactive)	> 42.5 µM (inactive)	> 69.2 µM (inactive)	> 53.2 µM (inactive)	15 µM (inactive)	> 100 µM (inactive)	> 100 µM (inactive)	16.6 µM (inactive)	29.2 µM (inactive)	> 100 µM (inactive)
